In patent publication US8198293B2, “Oxymatrine compositions and related methods for treating and preventing chronic infectious diseases” (priority 2008, dated 2012):

How the values were obtained:
[1] = tested on: coxsackievirus B; conditions: in vitro, cell cultures; mechanism not defined; cited from earlier work
[2] = tested on: Coxsackievirus B myocarditis; conditions: intravenous; chronic Coxsackievirus B myocarditis; 0% in placebo group; cited from earlier work
[3] = tested on: chronic enterovirus infection / chronic fatigue; assay: Case reports: treatment of chronic fatigue (Examples 2-5); type: in vivo, human; conditions: Example 5 patient, before oxymatrine
Experimental: A person with episodes of diarrhea while traveling to Tonga developed severe respiratory infection soon thereafter. The symptoms consisted of fevers to 105° F., night sweats, diffuse myalgia, tachycardia, fatigue, sinus congestion and cough, and unresponsiveness to antibiotics. The patient developed profound fatigue thereafter and went on total disability three months after the onset of symptoms. Initial Coxsackie B virus (CBV) 3, CVB4 and echovirus 9 antibody titers were 1:320, 1:160, 1:80 (normal <1:10), respectively.
The patient could not work for the next 18 months. They were started on oxymatrine at 300 mg twice a day (bid). After taking oxymatrine for two months, they were able to take short walks, but still exhausted after one hour of activity requiring five hour naps. At the end of three months of therapy, they started having fevers of 104-105° F. for several days with marked decrease in diffuse myalgia. […] CVB3, CVB4 and echovirus antibody three months after therapy were 1:160, 1:160 and 1:20, respectively.
A person who had recurrent episodes of debilitating fatigue became totally incapacitated after approximately 17 years. […] They went into remission but relapsed nine months later after developing a minor upper respiratory infection. They improved minimally after several months of bed rest, but was barely able to work six hours per day. They had brain fog, myalgia ( 7/10 pain) and was barely able to walk even 1-2 blocks.
Three days after taking oxymatrine at a dose of 300 mg bid, the myalgia intensified ( 10/10 pain), especially one hour after taking the pills. One week after starting oxymatrine, routine laboratory tests including CBC, chemistry panel and creatine phosphokinase (CPK) were normal. They continued having significant fatigue and myalgia for the next three weeks, but the symptoms resolved one week after stopping the medication. Mild increase in myalgia recurred three days after resuming oxymatrine, but resolved after continuing the medication for the next two weeks. The patient felt well at the end of three months with minimal discomfort in a few muscle groups.
Severe myalgia recurred after resuming vigorous exercise for three weeks while taking oxymatrine. They had to stop exercise for the two months allowing cessation of myalgia. After taking oxymatrine for six months, the patient felt well. Over the next six months after stopping the medication, the patient continuously performed heavy physical activities without significant difficulty. After developing another episode of upper respiratory symptoms, their symptoms relapsed. They have resumed oxymatrine but experienced increasing myalgia as the fatigue improved.
A person with a known history of frequent respiratory infections and vasovagal syncope developed respiratory infection, which was followed by bedridden fatigue. Enteroviral protein was detected in the stomach biopsy consistent with chronic enterovirus infection. […] After vigorous exercise, they would still have relapses of bedridden fatigue for one day but continued to work 10-12 hours per day for the next 12 months, walking two miles per day. Laboratory tests were normal while on therapy.
A person developed debilitating fatigue, sore throat, oral ulcers, vertigo, headaches and cognitive dysfunction two months after having a flu-like illness. […] Approximately four years later, the patient started taking oxymatrine. After an initial increase of gastrointestinal symptoms for the first two weeks, the patient tolerated 500 mg per day of oxymatrine.
The symptoms continued for two weeks and resolved after stopping oxymatrine. […] They continued to improve for 12 months after taking the medication.

[4] = tested on: Mycobacterium avium complex (MAC); assay: Case report: Mycobacterium avium complex infection of the lung; type: in vivo, human; conditions: before oxymatrine, added to four-drug therapy
Experimental: A person with known history of Mycobacterium avium complex (MAC) infection of the lung and bronchiectasis for several years was treated with clarithromycin, ethambutol, ciprofloxacin and rifabutin for about five years. […] Intravenous amikacin was added following right middle and left lingula lobectomy. In spite of the above therapy, sputum and repeat bronchial washing obtained by bronchoscopy grew MAC within three weeks. A computed tomography scan of the chest remained unchanged except for the post-surgical changes.
Because of persistent positive cultures despite the four drug therapies, the patient was started on oxymatrine, which they tolerated well. […] Sputum became clear in color then resolved. About two months after the start of oxymatrine, the patient had fevers, flu-like symptoms, increase in non-productive cough, bilateral uveitis and elevation of liver enzymes to 3.5 times normal values. The symptoms lasted two weeks and resolved after tapering dose of oxymatrine to 200 mg bid. Liver enzymes returned to normal within six weeks. […] The anti-MAC medications were discontinued after […] of oxymatrine therapy. The dose of oxymatrine was tapered to 100 mg tid at four and a half months of therapy and then stopped after six months of total therapy. The patient felt well at the six month follow-up.

For `O=C1CCC[C@@H]2[C@H]3CCCN4CCC[C@@H](CN12)[C@@H]34` [matrine], the “growth inhibition of coxsackievirus B” value [1] is listed as “growth inhibition” and the “patients with improvement of cardiac function, increase in lymphocyte number and function, and loss of viral markers” value [2] is listed as “more than 90%”.
In the case of `CC(C)[C@H](N)C(=O)OCCOCn1cnc2c(=O)[nH]c(N)nc21` [valacyclovir], the “response of fatigue and other symptoms” value [3] was “did not respond”.
In the case of gamma interferon, the “benefit on persistent positive sputum culture for MAC” value [4] was “without significant benefit”.
